Measurements as given in patent US12145929B2, “Piperidine derivative and pharmaceutical composition for inhibiting autotaxin comprising same” (NEXTGEN BIOSCIENCE CO., LTD., priority 2021, dated 2024).

Each compound was assayed against human Autotaxin protein (Homo sapiens, UniProt Q13822) (assay: Evaluation of inhibitory activity against human Autotaxin protein (18:1 LysoPC substrate, choline assay kit, absorbance 570 nm)). Conditions: compound at 500 nM, 2 hours at 37° C.
Assay type: biochemical
Experimental: The solution of each synthesized compound (80 uM, 100% dimethyl sulfoxide) was sequentially diluted 5 times with dimethyl sulfoxide to prepare 6 concentrations. Each concentration of compound was diluted two-fold with 1× test buffer (50 mM Tris-Cl (pH 8.0), 5 mM KCl, 1 mM CaCl2), 1 mM MgCl2, 140 mM NaCl, deionized water, 1 mg/mL BSA), and 1 uL (1.25% dimethyl sulfoxide) of this diluted mixture was dispensed into each well of a 96 well clear round bottom plate. 9 uL of 1× test buffer were added to each well, followed by the addition of 20 uL of 240 nM human Autotaxin protein (buffer: 50 mM Tris-HCl, pH 8.0, with 150 mM sodium chloride and 20% glycerol). 10 uL of sonicated 360 uM 18:1 LysoPC (diluted with 1× test buffer) were added to each well. The reaction was performed for 2 hours in a shaking incubator at 37° C., and a secondary reaction mixture (choline assay kit, KA1662) (65 uL of 1× test buffer: 1 uL of choline oxidase: 1 uL of dye probe) was prepared. 60 uL of the secondary reaction mixture were added to the reaction plate and reacted on a shaker for 30 minutes. Using a SpectraMax iD3 microplate reader, the absorbance was measured at a wavelength of 570 nm. The percentage of inhibition activity (% inhibition) was calculated by the Formula: (1−Absorbancetestgroup/Absorbancecontrol group)×100.

Structure (SMILES) | inhibition at 0.5 µM
Fc1cc(F)cc(CNc2ncc(-c3nnc(N4CCC(c5cnn[nH]5)CC4)o3)cn2)c1 [Example 57, 5-(5-(4-(1H-1,2,3-triazol-5-yl)piperidin-1-yl)-1,3,4-oxadiazol-2-yl)-N-(3,5-difluorobenzyl)pyrimidin-2-amine] | 88.1%
Fc1ccc(CNc2ncc(-c3nnc(N4CCC(c5cnn[nH]5)CC4)o3)cn2)cc1F [Example 58, 5-(5-(4-(1H-1,2,3-triazol-5-yl)piperidin-1-yl)-1,3,4-oxadiazol-2-yl)-N-(3,4-difluorobenzyl)pyrimidin-2-amine] | 84%
Brc1cc(Br)cc(CNc2ncc(-c3nnc(N4CCC(c5cnn[nH]5)CC4)o3)cn2)c1 [Example 59, 5-(5-(4-(1H-1,2,3-triazol-5-yl)piperidin-1-yl)-1,3,4-oxadiazol-2-yl)-N-(3,5-dibromobenzyl)pyrimidin-2-amine] | 98.5%
Cc1nc(NC2Cc3ccc(Br)cc3C2)ncc1-c1nnc(N2CCC(c3cnn[nH]3)CC2)o1 (stereo not drawn) [Example 60, 5-(5-(4-(1H-1,2,3-triazol-5-yl)piperidin-1-yl)-1,3,4-oxadiazol-2-yl)-N-(5-bromo-2,3-dihydro-1H-inden-2-yl)-4-methylpyrimidin-2-amine] | 95.3%
Cc1nc(NC2Cc3cc(Br)c(Br)cc3C2)ncc1-c1nnc(N2CCC(c3cnn[nH]3)CC2)o1 [Example 61, 5-(5-(4-(1H-1,2,3-triazol-5-yl)piperidin-1-yl)-1,3,4-oxadiazol-2-yl)-N-(5,6-dibromo-2,3-dihydro-1H-inden-2-yl)-4-methylpyrimidin-2-amine] | 70%
c1ccc2c(c1)CC(Nc1ncc(CCCN3CCC(c4c[nH]nn4)CC3)cn1)C2 [Example 62, 5-(3-(4-(1H-1,2,3-triazol-4-yl)piperidin-1-yl)propyl)-N-(2,3-dihydro-1H-inden-2-yl)pyrimidin-2-amine] | 70.2%
Fc1cc2c(cc1F)CC(Nc1ncc(-c3nnc(N4CCC(N5CCOCC5)CC4)o3)cn1)C2 [Example 63, N-(5,6-difluoro-2,3-dihydro-1H-inden-2-yl)-5-(5-(4-morpholinopiperidin-1-yl)-1,3,4-oxadiazol-2-yl)pyrimidin-2-amine] | 42.9%
OC1CN(C2CCN(c3nnc(-c4cnc(NC5Cc6cc(F)c(F)cc6C5)nc4)o3)CC2)C1 [Example 64, 1-(1-(5-(2-((5,6-Difluoro-2,3-dihydro-1H-inden-2-yl)amino)pyrimidin-5-yl)-1,3,4-oxadiazol-2-yl)piperidin-4-yl)azetidin-3-ol] | 28.1%
NS(=O)(=O)C1CCN(c2nnc(-c3cnc(NC4Cc5cc(F)c(F)cc5C4)nc3)o2)CC1 [Example 65, 1-(5-(2-((5,6-Difluoro-2,3-dihydro-1H-inden-2-yl)amino)pyrimidin-5-yl)-1,3,4-oxadiazol-2-yl)piperidine-4-sulfonamide] | 58%
O=c1[nH]nc(C2CCN(c3nnc(-c4cnc(NC5Cc6cc(F)c(F)cc6C5)nc4)o3)CC2)o1 [Example 66, 5-(1-(5-(2-((5,6-Difluoro-2,3-dihydro-1H-inden-2-yl)amino)pyrimidin-5-yl)-1,3,4-oxadiazol-2-yl)piperidin-4-yl)-1,3,4-oxadiazol-2(3H)-one] | 86.8%
O=C(O)C1CCN(c2nnc(-c3cnc(NC4Cc5cc(F)c(F)cc5C4)nc3)o2)CC1 [Example 67, 1-(5-(2-((5,6-Difluoro-2,3-dihydro-1H-inden-2-yl)amino)pyrimidin-5-yl)-1,3,4-oxadiazol-2-yl)piperidine-4-carboxylic acid] | 30.9%
O=C(O)CC1CCN(c2nnc(-c3cnc(NC4Cc5cc(F)c(F)cc5C4)nc3)o2)CC1 [Example 68, 2-(1-(5-(2-((5,6-Difluoro-2,3-dihydro-1H-inden-2-yl)amino)pyrimidin-5-yl)-1,3,4-oxadiazol-2-yl)piperidin-4-yl)acetic acid] | 87.1%
O=C(NO)C1CCN(c2nnc(-c3cnc(NC4Cc5cc(F)c(F)cc5C4)nc3)o2)CC1 [Example 69, 1-(5-(2-((5,6-Difluoro-2,3-dihydro-1H-inden-2-yl)amino)pyrimidin-5-yl)-1,3,4-oxadiazol-2-yl)-N-hydroxypiperidine-4-carboxamide] | 66.8%
COC1(c2c[nH]nn2)CCN(c2nnc(-c3cnc(NC4Cc5cc(F)c(F)cc5C4)nc3)o2)CC1 [Example 70, N-(5,6-difluoro-2,3-dihydro-1H-inden-2-yl)-5-(5-(4-methoxy-4-(1H-1,2,3-triazol-4-yl)piperidin-1-yl)-1,3,4-oxadiazol-2-yl)pyrimidin-2-amine] | 97.9%
Fc1cc2c(cc1F)CC(Nc1ncc(-c3nnc(N4CCC(F)(c5cnn[nH]5)CC4)o3)cn1)C2 [Example 71, N-(5,6-difluoro-2,3-dihydro-1H-inden-2-yl)-5-(5-(4-fluoro-4-(1H-1,2,3-triazol-5-yl)piperidin-1-yl)-1,3,4-oxadiazol-2-yl)pyrimidin-2-amine] | 98.6%
